The record followed here is US9670199B2, “Ergoline derivatives as dopamine receptor modulators” (REGENTS OF THE UNIVERSITY OF MINNESOTA, priority 2012, dated 2017).

A word on the EC50: it is the concentration giving half of the maximal effect. A high value points to weaker potency. In general, Emax refers to the maximal effect, on the per cent scale that the assay sets.

Test [1] has as its target T1, 5-HT2B receptor (Homo sapiens, UniProt P41595). As to the kind of experiment: 5-HT2B competitive binding assay against 125I-radiolabeled 2,5-dimethoxy-4-iodoamphetamine (agonist radioligand). The note with it: result in words. From the text: (§1) The biological activity of representative compounds of the invention can be determined using a number of assays that are known.

In test [2] the target is T1, 5-HT2B receptor. As to the kind of experiment: 5-HT2B functional assay (agonism), HTRF quantitation of IP1 accumulation. The test is classed as cell-based. The note with it: for 5-HT2B agonism (type of agonist): result in words.
Text: as §1
A general note: TR-FRET usually uses a lanthanide donor and a delayed reading to cut background.

In test [3] the target is D2 receptor (Homo sapiens, UniProt P14416). As to the kind of experiment: D2 functional assay. In kind it is cell-based. The method, then: (§2) The biological activity of representative compounds of the invention can be determined using a number of assays that are known. For example, 5-HT2B functional assays were performed following the procedure reported by Porter, R. H. P., et al., Br. J. Pharmacol. 1999, 128, 13-20. 5-HT2B binding assays were performed following the procedure reported by Choi, D.-S., et al., FEBS Lett. 1994, 352, 393-399, using an agonist radioligand. D2 and D4 functional assays were performed following the method reported by Jensen, N. H., et al., Neuropsychopharmacology 2007, 33, 2303-2312.

Test [4] addresses T1, 5-HT2B receptor. As to the kind of experiment: 5-HT2B functional assay, antagonism against serotonin. The note with it: result in words. The test is classed as cell-based. The method, then:
as §2

For test [5], the target named is T2, D4 receptor (Homo sapiens, UniProt P21917).
T2 sequence (P21917 1-419): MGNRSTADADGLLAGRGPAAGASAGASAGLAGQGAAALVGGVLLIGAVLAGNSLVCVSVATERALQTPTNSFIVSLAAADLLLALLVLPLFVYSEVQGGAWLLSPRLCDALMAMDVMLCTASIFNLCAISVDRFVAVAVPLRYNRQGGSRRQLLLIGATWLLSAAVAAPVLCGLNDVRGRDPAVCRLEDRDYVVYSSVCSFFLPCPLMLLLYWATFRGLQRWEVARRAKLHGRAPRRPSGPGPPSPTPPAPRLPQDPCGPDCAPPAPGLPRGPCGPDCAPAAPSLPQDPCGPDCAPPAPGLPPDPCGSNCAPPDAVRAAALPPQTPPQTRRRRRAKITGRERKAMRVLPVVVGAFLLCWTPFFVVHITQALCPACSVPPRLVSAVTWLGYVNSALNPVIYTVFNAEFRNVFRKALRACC
As to the kind of experiment: D4 functional assay. The test is classed as cell-based. The note with it: result in words. The method, then:
as §2

The test system of test [6] is male rats. As to the kind of experiment: Effects on sexual function in rats. The test is classed as in vivo, rat. To be noted: gavage. The source says:
Effects of Cabergoline on Sexual Function in Rats. […] This can be tested by seeing whether it can potentiate the induction of a conditioned partner preference. For example, a study could be performed where rats take the drug immediately before their first sexual experience with an almond scented female and 4 days later the cabergoline rats are put in an open field with two females, one scented and the other unscented. Males given their first, e.g., 10, copulatory experiences with scented females would show a significant conditioned ejaculatory preference to ejaculate preferentially with the scented female. […] Cabergoline could also be similarly tested on males that have had their ejaculations reduced to near zero by chronic administration of the SSRI fluoxetine. SSRIs are known to induce anorgasmia, and currently there is no treatment for this side effect.

Bounds are passed on as bounds.

D2 receptor, sequence (P14416 whole entry): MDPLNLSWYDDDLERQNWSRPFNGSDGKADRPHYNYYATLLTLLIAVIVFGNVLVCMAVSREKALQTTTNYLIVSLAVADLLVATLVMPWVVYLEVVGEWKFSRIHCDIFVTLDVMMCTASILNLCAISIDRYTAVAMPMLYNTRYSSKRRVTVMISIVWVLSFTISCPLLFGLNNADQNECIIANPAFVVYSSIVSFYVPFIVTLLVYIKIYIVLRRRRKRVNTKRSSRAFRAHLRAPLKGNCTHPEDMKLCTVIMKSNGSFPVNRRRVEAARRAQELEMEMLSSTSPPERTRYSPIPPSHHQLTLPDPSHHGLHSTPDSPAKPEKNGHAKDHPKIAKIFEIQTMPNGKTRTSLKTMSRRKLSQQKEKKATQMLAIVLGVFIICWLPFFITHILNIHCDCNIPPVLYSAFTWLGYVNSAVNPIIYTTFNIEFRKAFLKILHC
T1 sequence (P41595 whole entry): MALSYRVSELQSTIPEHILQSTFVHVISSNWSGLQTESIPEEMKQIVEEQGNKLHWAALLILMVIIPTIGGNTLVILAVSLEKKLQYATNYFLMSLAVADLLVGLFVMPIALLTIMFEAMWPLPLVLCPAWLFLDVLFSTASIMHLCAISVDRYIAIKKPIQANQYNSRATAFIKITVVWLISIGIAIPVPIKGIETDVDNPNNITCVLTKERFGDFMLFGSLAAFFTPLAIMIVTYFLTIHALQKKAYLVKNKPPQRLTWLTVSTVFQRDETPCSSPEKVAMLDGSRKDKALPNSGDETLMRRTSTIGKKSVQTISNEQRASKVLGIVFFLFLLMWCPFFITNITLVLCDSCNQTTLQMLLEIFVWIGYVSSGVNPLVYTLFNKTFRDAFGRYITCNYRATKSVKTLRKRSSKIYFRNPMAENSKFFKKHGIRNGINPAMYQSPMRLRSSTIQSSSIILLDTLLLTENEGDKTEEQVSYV

Consider `C=CCN1C[C@H](C(=O)N(CCCN2CCOCC2)C(=O)NCC)C[C@@H]2c3cccc4[nH]cc(c34)C[C@H]21` [Compound 1, (5R,8R,10R)-6-Allyl-N-[3-(morpholino)propyl]-N-[(ethylamino)carbonyl]-ergoline-8-carboxamide], for which the “activity/potency at 5-HT2B receptor in radioactive binding assay, compared with cabergoline” value in test [1] is “not significantly less active”. In test [2], the “5-HT2B agonism (type of agonist)” value is “full agonists”.

On to `CCNC(=O)N(CCCN(C)C)C(=O)[C@@H]1C[C@@H]2c3cccc4c3c(cn4C)C[C@H]2N(C)C1` [Compound 9, 1,6-Dimethylcabergoline], for which, in test [3], a half-maximal effect (EC50) was put at 1.4 nM and the Emax came to 50%. Further, the “D2 agonism (type of agonist)” value in test [3] (result in words) is on record as “potent but partial D2 agonist”. Also, in test [4], the “5-HT2B antagonism against serotonin” value is reported as “potent antagonists”. For the same compound, the “5-HT2B agonism (type of agonist)” value in test [2] is listed as “no agonism”. In addition, the “D4 agonism (type of agonist)” value in test [5] is “full D4 agonist”.

With `CN(C)CCCNC(=O)[C@@H]1C[C@@H]2c3cccc4c3c(cn4C)C[C@H]2N(C)C1` [Compound 14, (5R,8R,10R)-1,6-Dimethyl-N-[3-(dimethylamino)propyl]ergoline-8-carboxamide], the “5-HT2B antagonism against serotonin” value in test [4] is on record as “potent antagonists”. Besides, the Emax in test [2] (read-out: 5-HT2B Emax) was below 12%. The “5-HT2B agonism (type of agonist)” value in test [2] is “minimal to no agonism”.

For the compound `COC(OC)[C@@H]1C[C@@H]2c3cccc4c3c(cn4C)C[C@H]2N(C)C1` [Compound 15], the “5-HT2B antagonism against serotonin” value in test [4] is listed as “potent antagonists”. Besides, in test [2], the “5-HT2B agonism (type of agonist)” value was “no agonism”.

As to `C=CCN1C[C@H](C(=O)N(CCCN(C)C)C(=O)NCC)C[C@@H]2c3cccc4[nH]cc(c34)C[C@H]21` [cabergoline], the “5-HT2B agonism (type of agonist)” value in test [2] was “full agonists”. Moreover, in test [6], the “anticipatory level changes prior to copulation (anticipatory desire)” value is given as “increased”, the “ejaculation latencies vs controls” value is listed as “shorter ejaculation latencies”, the “intromissions before ejaculation vs controls” value was “more intromissions” and the “number of ejaculations vs controls” value is given as “significantly more times”.
